Patent US20220062299A1, “USE OF GLUCOCORTICOID STEROIDS IN PREVENTING AND TREATING CONDITIONS OF MUSCLE WASTING, AGING AND METABOLIC DISORDER” (NORTHWESTERN UNIVERSITY, priority 2018, published 2022)

Test system: Klf15, Mef2C, Foxo3 loci in mdx muscle
Experiment: H3K27ac ChIP-seq on myofibers integrated with RNA-seq of mdx muscle
Format: in vivo, mouse
Procedure: H3K27ac ChIP-seq on muscle myofibers. Freshly-isolated whole quadriceps muscles (both per mouse) were finely minced and digested in 10 ml/muscle of PBS supplemented with 1 mM CaCl2 and 100 U/ml collagenase II (Cat #17101, Life Technologies, Grand Island, N.Y.) at 37° C. for 1 hour with shaking. The suspension was then filtered through a 40 μm strainer (Cat #22363547, Fisher Scientific, Waltham, Mass.) and the unfiltered fraction (enriched in myofibers) was kept for further steps. Separation of mononuclear fraction in the filtered fraction was confirmed at the microscope. Myofibers were fixed in 10 ml 1% PFA for 30 minutes at room temperature with gentle nutation. Fixation was quenched 1 ml of 1.375M glycine (Cat #BP381-5, Fisher Scientific, Waltham, Mass.) with gentle nutation for 5 minutes at room temperature. After centrifugation at 3000 g for 5 minutes, myofibers were lysed in 1.4 ml lysis buffer with approximately 25 μl 2.3 mm zirconia/silica beads (Cat #11079125z, BioSpec, Bartlesville, Okla.). Lysis buffer consisted of 10 mM HEPES (pH 7.3; Cat #H3375), 10 mM KCl (Cat #P9541), 5 mM MgCl2 (Cat #M8266), 0.5 mM DTT (Cat #646563), 3 μg/ml cytochalasin B (C6762; all reagents from Sigma, St. Louis, Mo.); protease inhibitor cocktail (Cat #11852700, Roche, Mannheim, Germany)). Myofibers were them homogenized by means of Mini-BeadBeater-16 (Cat #607, Biospec, Bartlesville, Okla.) for 30 sec, then by rotating at 4° C. for 30 minutes. […] DNA was purified using the MinElute purification kit (cat #28004; Qiagen, Hilden, Germany), quantitated using Qubit reader and reagents. Library preparation and sequencing were conducted at the NU Genomics Core, using TrueSeq ChiP-seq library prep (with size exclusion) on 5 ng chromatin per ChIP sample or pooled input, and HiSeq 50 bp single-read sequencing (approximately 60 million read coverage per sample). […]

With `C[C@]12C=CC(=O)C=C1CC[C@@H]1[C@@H]2C(=O)C[C@@]2(C)[C@H]1CC[C@]2(O)C(=O)CO` [prednisone, Prednisone] the “Foxo3 and other muscle atrophy factors” value (daily prednisone) was “upregulation”, the “levels of Klf15 and Mef2C” value (daily prednisone) was “reduced” and the “H3K27ac marks and transcription of Klf15 and Mef2C” value (weekly prednisone) was “increased”.
